Measured values reported in PMC8953565 (2022).

Legend:
[1] = tested on: FAM-MG-36-12 (DNA, aptamer) CCATGCGACGGACAGCACGTGTCACCGCGATCAGCC; test: graphene oxide FRET fluorescence recovery; conditions: 137 mM NaCl, 2.7 mM KCl, 1 mM CaCl2, 0.5 mM MgCl2; DPBS pH 7.4, room temperature; 10 nM aptamer on GO; compound at twice the MG concentration
[2] = tested on: FAM-MG-36-17 (DNA, aptamer) CGCAGCGCGGCAGACAGTCAGGCTCAGCACGTGGCA; test: graphene oxide FRET fluorescence recovery; conditions: 137 mM NaCl, 2.7 mM KCl, 1 mM CaCl2, 0.5 mM MgCl2; DPBS pH 7.4, room temperature; 10 nM aptamer on GO; compound at twice the MG concentration
[3] = tested on: FAM-MG-76-16-6A (DNA, aptamer) AAAAAAGTTCGTGGTGTGCTGGATGTCCACCCGACAGCCAGTCACGCGCATCGTACAGACCGTGACACATCCAGCAGCACGA; test: graphene oxide FRET fluorescence recovery; conditions: 137 mM NaCl, 2.7 mM KCl, 1 mM CaCl2, 0.5 mM MgCl2; DPBS pH 7.4, room temperature; 10 nM aptamer on GO; compound at twice the MG concentration
[4] = tested on: MG-36-12 (DNA, aptamer) CCATGCGACGGACAGCACGTGTCACCGCGATCAGCC; test: ITC; conditions: 137 mM NaCl, 2.7 mM KCl, 1 mM CaCl2, 0.5 mM MgCl2; DPBS pH 7.4, 25 °C; 2 mM MG into 5 μM aptamer; one-site model
[5] = tested on: MG-36-16 (DNA, aptamer) CCACCCGACAGCCAGTCACGCGCATCGTACAGACCG; test: ITC; conditions: 137 mM NaCl, 2.7 mM KCl, 1 mM CaCl2, 0.5 mM MgCl2; DPBS pH 7.4, 25 °C; 2 mM MG into 5 μM aptamer; one-site model
[6] = tested on: MG-36-17 (DNA, aptamer) CGCAGCGCGGCAGACAGTCAGGCTCAGCACGTGGCA; test: ITC; conditions: 137 mM NaCl, 2.7 mM KCl, 1 mM CaCl2, 0.5 mM MgCl2; DPBS pH 7.4, 25 °C; 2 mM MG into 5 μM aptamer; one-site model
[7] = tested on: MG-1 (DNA, aptamer) CCGCCACAGGACAGCCAGTCTGATCGCCATGACGAC; test: ITC; conditions: 137 mM NaCl, 2.7 mM KCl, 1 mM CaCl2, 0.5 mM MgCl2; DPBS pH 7.4, 25 °C; screen with 100 μM candidate and 10 mM MG; weak thermal variation
[8] = tested on: MG-2 (DNA, aptamer) AGCCCGAGCTGCAGCCAGAATGTGCCACGTGTACGT; test: ITC; conditions: 137 mM NaCl, 2.7 mM KCl, 1 mM CaCl2, 0.5 mM MgCl2; DPBS pH 7.4, 25 °C; screen with 100 μM candidate and 10 mM MG; weak thermal variation
[9] = tested on: MG-3 (DNA, aptamer) CGAGACACAGTCACGTGCATCCAGTCAGCATGCGTC; test: ITC; conditions: 137 mM NaCl, 2.7 mM KCl, 1 mM CaCl2, 0.5 mM MgCl2; DPBS pH 7.4, 25 °C; screen with 100 μM candidate and 10 mM MG; weak thermal variation
[10] = tested on: MG-4 (DNA, aptamer) TGCAACACAACAGCCAGTCATGCCGGTGCACAGTCA; test: ITC; conditions: 137 mM NaCl, 2.7 mM KCl, 1 mM CaCl2, 0.5 mM MgCl2; DPBS pH 7.4, 25 °C; screen with 100 μM candidate and 10 mM MG; weak thermal variation
[11] = tested on: MG-5 (DNA, aptamer) CCCCGACAGCCGGCACAATGTGTCTGCCACGGACGT; test: ITC; conditions: 137 mM NaCl, 2.7 mM KCl, 1 mM CaCl2, 0.5 mM MgCl2; DPBS pH 7.4, 25 °C; screen with 100 μM candidate and 10 mM MG; weak thermal variation
[12] = tested on: MG-6 (DNA, aptamer) CGCAACGCGGCAACAGAGCACAGATCGCACAGACTG; test: ITC; conditions: 137 mM NaCl, 2.7 mM KCl, 1 mM CaCl2, 0.5 mM MgCl2; DPBS pH 7.4, 25 °C; screen with 100 μM candidate and 10 mM MG; weak thermal variation
[13] = tested on: MG-7 (DNA, aptamer) CGAGCCGAACGAGACGTCCAGTCCGTGCCCACGCAC; test: ITC; conditions: 137 mM NaCl, 2.7 mM KCl, 1 mM CaCl2, 0.5 mM MgCl2; DPBS pH 7.4, 25 °C; screen with 100 μM candidate and 10 mM MG; weak thermal variation
[14] = tested on: MG-8 (DNA, aptamer) TGTGCCCACAACTCCAGTCACGTTCGTCCAGCTCAG; test: ITC; conditions: 137 mM NaCl, 2.7 mM KCl, 1 mM CaCl2, 0.5 mM MgCl2; DPBS pH 7.4, 25 °C; screen with 100 μM candidate and 10 mM MG; weak thermal variation
[15] = tested on: MG-9 (DNA, aptamer) TCTCGCAACAGCCAGCGTCATGTGACCACGGAACCA; test: ITC; conditions: 137 mM NaCl, 2.7 mM KCl, 1 mM CaCl2, 0.5 mM MgCl2; DPBS pH 7.4, 25 °C; screen with 100 μM candidate and 10 mM MG; weak thermal variation
[16] = tested on: MG-10 (DNA, aptamer) CGCGCAGCGGCAGACAGTCAGACTGCGACGCACGTT; test: ITC; conditions: 137 mM NaCl, 2.7 mM KCl, 1 mM CaCl2, 0.5 mM MgCl2; DPBS pH 7.4, 25 °C; screen with 100 μM candidate and 10 mM MG; weak thermal variation
[17] = tested on: MG-11 (DNA, aptamer) CATGCCCAACGACATGCAGCACGTGGCCATGCACAA; test: ITC; conditions: 137 mM NaCl, 2.7 mM KCl, 1 mM CaCl2, 0.5 mM MgCl2; DPBS pH 7.4, 25 °C; screen with 100 μM candidate and 10 mM MG; weak thermal variation
[18] = tested on: MG-13 (DNA, aptamer) ACGCATCGCGAACAGCCGTGCCGTGTCCACGTACAG; test: ITC; conditions: 137 mM NaCl, 2.7 mM KCl, 1 mM CaCl2, 0.5 mM MgCl2; DPBS pH 7.4, 25 °C; screen with 100 μM candidate and 10 mM MG; weak thermal variation
[19] = tested on: MG-14 (DNA, aptamer) CACCGCCAGGGACAGCCAGTCACGTAGCCCGGAACG; test: ITC; conditions: 137 mM NaCl, 2.7 mM KCl, 1 mM CaCl2, 0.5 mM MgCl2; DPBS pH 7.4, 25 °C; screen with 100 μM candidate and 10 mM MG; weak thermal variation
[20] = tested on: MG-15 (DNA, aptamer) CGGCCAGACGACAGCCAGTCACCGGACACGATCAGG; test: ITC; conditions: 137 mM NaCl, 2.7 mM KCl, 1 mM CaCl2, 0.5 mM MgCl2; DPBS pH 7.4, 25 °C; screen with 100 μM candidate and 10 mM MG; weak thermal variation
[21] = tested on: MG-18 (DNA, aptamer) CCGCAGCACGGTCGTACAGCAGCTGCCACGGCATCC; test: ITC; conditions: 137 mM NaCl, 2.7 mM KCl, 1 mM CaCl2, 0.5 mM MgCl2; DPBS pH 7.4, 25 °C; screen with 100 μM candidate and 10 mM MG; weak thermal variation
[22] = tested on: MG-19 (DNA, aptamer) CGCAGACAGCCAGTCAGGGAGCGTCCAGTCCGACAC; test: ITC; conditions: 137 mM NaCl, 2.7 mM KCl, 1 mM CaCl2, 0.5 mM MgCl2; DPBS pH 7.4, 25 °C; screen with 100 μM candidate and 10 mM MG; weak thermal variation
[23] = tested on: MG-20 (DNA, aptamer) CGCACAGCAAGACAGCCAGTCAACAGCCGCGAATGT; test: ITC; conditions: 137 mM NaCl, 2.7 mM KCl, 1 mM CaCl2, 0.5 mM MgCl2; DPBS pH 7.4, 25 °C; screen with 100 μM candidate and 10 mM MG; weak thermal variation
[24] = tested on: MG-21 (DNA, aptamer) CCATGCAGCCAGCGTCCACCGTCCGTACAGTACGTG; test: ITC; conditions: 137 mM NaCl, 2.7 mM KCl, 1 mM CaCl2, 0.5 mM MgCl2; DPBS pH 7.4, 25 °C; screen with 100 μM candidate and 10 mM MG; weak thermal variation
[25] = tested on: MG-22 (DNA, aptamer) CGCGCACAGACAGCGTCATGGCCACGTACAGTTCCT; test: ITC; conditions: 137 mM NaCl, 2.7 mM KCl, 1 mM CaCl2, 0.5 mM MgCl2; DPBS pH 7.4, 25 °C; screen with 100 μM candidate and 10 mM MG; weak thermal variation
[26] = tested on: MG-23 (DNA, aptamer) CGCTACGACAGACAGCGTCGAGCACACAACGTTGCG; test: ITC; conditions: 137 mM NaCl, 2.7 mM KCl, 1 mM CaCl2, 0.5 mM MgCl2; DPBS pH 7.4, 25 °C; screen with 100 μM candidate and 10 mM MG; weak thermal variation
[27] = tested on: MG-24 (DNA, aptamer) ACGCACGTACGGCCAGTCATATGCGCACCGCGTTCA; test: ITC; conditions: 137 mM NaCl, 2.7 mM KCl, 1 mM CaCl2, 0.5 mM MgCl2; DPBS pH 7.4, 25 °C; screen with 100 μM candidate and 10 mM MG; weak thermal variation

## NNC(N)=O
[1]
  binding: no

## NN1CC(=O)NC1=O
[1]
  binding: no

## NN1CC(CN2CCOCC2)OC1=O (stereo not shown)
[1]
  binding: no

## CN(C)c1ccc(C(c2ccccc2)c2ccc(N(C)C)cc2)cc1
[1]
  binding: no
[2]
  binding: no
[3]
  binding: no

## Nc1ccc(S(=O)(=O)Nc2ccccn2)cc1
[1]
  binding: no

## Cc1cc(C)nc(NS(=O)(=O)c2ccc(N)cc2)n1
[1]
  binding: no
[2]
  binding: no

## NN1CCOC1=O
[1]
  binding: no

## CN(C)c1ccc(C(=C2C=CC(=[N+](C)C)C=C2)c2ccccc2)cc1
[4]
  Kd: 169.78 µM
[5]
  Kd: 71.94 µM
[6]
  Kd: 102.46 µM
[7]
  binding: no
[8]
  binding: no
[9]
  binding: no
[10]
  binding: no
[11]
  binding: no
[12]
  binding: no
[13]
  binding: no
[14]
  binding: no
[15]
  binding: no
[16]
  binding: no
[17]
  binding: no
[18]
  binding: no
[19]
  binding: no
[20]
  binding: no
[21]
  binding: no
[22]
  binding: no
[23]
  binding: no
[24]
  binding: no
[25]
  binding: no
[26]
  binding: no
[27]
  binding: no

## O=C(N[C@H](CO)[C@H](O)c1ccc([N+](=O)[O-])cc1)C(Cl)Cl
[1]
  binding: no
[2]
  binding: no
[3]
  binding: no

## CN(C)c1ccc(C(=C2C=CC(=[N+](C)C)C=C2)c2ccc(N(C)C)cc2)cc1
[1]
  binding: no
[2]
  binding: no
[3]
  binding: no
